From publication PMC11786100, “Chronic GIPR agonism results in pancreatic islet GIPR functional desensitisation” (Molecular Metabolism, 2025)

Tests used:
[1] = target: T1, mouse GLP-1R (Mus musculus, UniProt O35659); test: HTRF cAMP assay in transiently transfected AD-293 cells; type: cell-based; settings: 30 min stimulation, n = 3–5
T1 construct: Plasmids encoding full length, wild-type human or mouse GLP-1R, GIPR or glucagon receptor (GCGR) in the pcDNA5/FRT vector; host or cells: AD-293
T1 sequence (O35659 22-463): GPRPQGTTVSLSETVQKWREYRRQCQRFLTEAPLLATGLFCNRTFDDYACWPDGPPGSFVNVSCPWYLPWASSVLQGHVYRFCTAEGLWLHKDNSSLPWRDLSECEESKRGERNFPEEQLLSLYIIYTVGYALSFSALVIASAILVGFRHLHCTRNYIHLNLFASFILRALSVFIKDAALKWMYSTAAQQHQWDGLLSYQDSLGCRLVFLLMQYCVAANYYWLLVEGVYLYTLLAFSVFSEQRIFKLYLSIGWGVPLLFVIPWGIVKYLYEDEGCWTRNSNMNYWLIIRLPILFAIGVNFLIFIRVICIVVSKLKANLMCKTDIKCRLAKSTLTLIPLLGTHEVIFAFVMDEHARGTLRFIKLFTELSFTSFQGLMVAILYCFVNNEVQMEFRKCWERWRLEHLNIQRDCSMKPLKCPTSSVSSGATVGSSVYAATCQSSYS
Method: (§1) AD-293 cells were transfected with desired plasmid DNA 24 h prior to cAMP quantification using the cAMP-Gs Dynamic 2 kit (Cisbio, France), as per manufacturer's protocol. Full details are provided in the supplementary methods.
(§2) AD-293 cells were added to a 12-well plate and maintained in 2 ml complete DMEM. 1 μg of specified plasmid DNA was added to each well alongside Lipofectamine 2000 (Thermo Fisher, UK). cAMP production was quantified 24 hours following transfection using homogenous time resolved fluorescence (HTRF), specifically the cAMP-Gs Dynamic 2 kit (Cisbio, France). Peptides and cells were diluted in DMEM + 1% P/S + 0.1% BSA. For peptide stability testing, cells, fresh peptide and peptide incubated with dispersed islet cells were diluted in RPMI-1640 (Thermo Fisher, UK) + 10% FBS + 1% P/S. 10 μl of peptide and 10 μl of cell suspension were added in duplicate to an opaque 96-well plate (Grenier Bio-One, Austria) and incubated at 37°C for 30 minutes. 10 μl of cAMP-d2 and anti-cAMP cryptate, both diluted in lysis buffer, were added in quick succession as per the manufacturer’s protocol. The plates were then incubated at room temperature for 45 minutes and read using the SpectraMax i3x (Molecular Devices, US).

[2] = target: T2, mouse GCGR (Mus musculus, UniProt Q61606); test: as above; type: cell-based; settings: 30 min stimulation, n = 3–5
T2 construct: Plasmids encoding full length, wild-type human or mouse GLP-1R, GIPR or glucagon receptor (GCGR) in the pcDNA5/FRT vector; host or cells: AD-293
Method: as §1, §2

[3] = target: T3, human GIPR (Homo sapiens, UniProt P48546); test: as above; type: cell-based; settings: 30 min stimulation, n = 3–5
T3 construct: Plasmids encoding full length, wild-type human or mouse GLP-1R, GIPR or glucagon receptor (GCGR) in the pcDNA5/FRT vector; host or cells: AD-293
T3 sequence (P48546 22-466): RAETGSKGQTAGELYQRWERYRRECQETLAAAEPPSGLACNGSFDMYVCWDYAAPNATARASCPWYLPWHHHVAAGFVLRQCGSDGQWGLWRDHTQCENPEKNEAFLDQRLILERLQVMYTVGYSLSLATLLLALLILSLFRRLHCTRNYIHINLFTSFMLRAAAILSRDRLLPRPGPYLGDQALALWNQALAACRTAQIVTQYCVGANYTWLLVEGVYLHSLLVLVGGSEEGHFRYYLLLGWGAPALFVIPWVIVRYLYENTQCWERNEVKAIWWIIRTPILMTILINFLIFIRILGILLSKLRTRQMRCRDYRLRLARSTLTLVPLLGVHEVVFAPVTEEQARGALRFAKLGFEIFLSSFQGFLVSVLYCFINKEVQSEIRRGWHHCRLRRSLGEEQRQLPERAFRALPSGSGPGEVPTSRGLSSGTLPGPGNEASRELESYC
Method: as §1, §2

[4] = target: T4, human GLP-1R (Homo sapiens, UniProt P43220); test: as above; type: cell-based; settings: 30 min stimulation, n = 3–5
T4 construct: Plasmids encoding full length, wild-type human or mouse GLP-1R, GIPR or glucagon receptor (GCGR) in the pcDNA5/FRT vector; host or cells: AD-293
Method: as §1, §2

[5] = test system: mouse GIPR; test: as above; type: cell-based; settings: 30 min stimulation, n = 3–5
Method: as §1, §2

[6] = target: T5, human GCGR (Homo sapiens, UniProt P47871); test: as above; type: cell-based; settings: 30 min stimulation, n = 3–5
T5 construct: Plasmids encoding full length, wild-type human or mouse GLP-1R, GIPR or glucagon receptor (GCGR) in the pcDNA5/FRT vector; host or cells: AD-293
Method: as §1, §2

[7] = Pharmacokinetic study in pigs; type: in vivo; settings: 0.5 mg/pig subcutaneously, male large white pigs, n = 3
Method: Pharmacokinetic testing of GIP108, administered subcutaneously at 0.5 mg/pig in male large white pigs, was outsourced to Pharmaron Ltd., UK. Full details are stated elsewhere.

[8] = target: T6, SNAP-tagged mouse GLP-1R (Mus musculus, UniProt O35659); test: Internalisation and receptor surface expression assays in AD-293 cells; type: cell-based; settings: 10 nM
T6 construct: host or cells: AD-293
T6 sequence (O35659 22-463): T1 sequence (O35659 22-463)
Method: AD-293 cells were transfected with desired plasmid DNA encoding a SNAP-tagged G-protein coupled receptor (GPCR) 24 h prior to assay. For 1 h internalisation assays, cells were labelled for 10 min with cleavable SNAP-tag probe BG-S-S-649 (New England BioLabs, US). Following 1 h treatment with specified peptide, cells were imaged at baseline and after addition of 2-mercaptoethane sulfonate (Mesna). For 4-hour GPCR surface expression assays, cells were treated with the specified peptide for 4 h, prior to 10-minute labelling with BG-S-S-649 and imaging. Full details are provided in the supplementary methods.
AD-293 cells were added to a 96-well plate and maintained in 200 μl complete DMEM. 150 ng of mouse or human SNAP-tagged plasmid GIPR DNA, or 100 ng of mouse or human SNAP-tagged plasmid GLP-1R DNA was added to each well alongside Lipofectamine 2000 (Thermo Fisher, UK) and left for 24 hours.
For 1 hour internalisation assays, cells were labelled with cleavable SNAP-tag probe BG-S-S-649 (New England BioLabs, US) in complete DMEM for 10 minutes prior to washing and 1 hour treatment with specified peptide, reconstituted in DMEM + 0.1% BSA. […] GPCR internalisation was quantified as the cell fluorescence following Mesna addition (representing internalised GPCR), corrected for the baseline cell fluorescence (representing total cellular GPCR). […]

T2 sequence (Q61606 27-485): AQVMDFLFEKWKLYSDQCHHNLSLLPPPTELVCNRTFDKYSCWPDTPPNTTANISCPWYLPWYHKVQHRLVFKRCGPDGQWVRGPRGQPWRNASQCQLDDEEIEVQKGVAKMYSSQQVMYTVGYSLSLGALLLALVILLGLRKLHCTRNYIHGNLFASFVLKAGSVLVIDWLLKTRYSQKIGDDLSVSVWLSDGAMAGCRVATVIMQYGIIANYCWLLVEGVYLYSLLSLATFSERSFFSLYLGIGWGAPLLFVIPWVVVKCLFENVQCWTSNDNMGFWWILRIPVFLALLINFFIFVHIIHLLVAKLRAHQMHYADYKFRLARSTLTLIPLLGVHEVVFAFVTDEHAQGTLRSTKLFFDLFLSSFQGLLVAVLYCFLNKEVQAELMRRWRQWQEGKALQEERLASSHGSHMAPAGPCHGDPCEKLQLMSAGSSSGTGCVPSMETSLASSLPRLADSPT
T4 sequence (P43220 24-463): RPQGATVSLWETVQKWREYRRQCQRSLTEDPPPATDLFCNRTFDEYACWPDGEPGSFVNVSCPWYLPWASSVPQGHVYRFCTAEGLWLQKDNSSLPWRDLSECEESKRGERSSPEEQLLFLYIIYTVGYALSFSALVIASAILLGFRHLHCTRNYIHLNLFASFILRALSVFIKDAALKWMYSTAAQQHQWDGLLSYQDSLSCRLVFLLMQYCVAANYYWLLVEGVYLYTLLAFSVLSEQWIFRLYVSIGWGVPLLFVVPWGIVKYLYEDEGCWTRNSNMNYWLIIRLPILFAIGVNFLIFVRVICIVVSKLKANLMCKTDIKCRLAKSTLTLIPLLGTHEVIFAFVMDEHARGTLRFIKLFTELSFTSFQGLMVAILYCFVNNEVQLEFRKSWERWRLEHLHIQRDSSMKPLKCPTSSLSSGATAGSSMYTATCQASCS
T5 sequence (P47871 26-477): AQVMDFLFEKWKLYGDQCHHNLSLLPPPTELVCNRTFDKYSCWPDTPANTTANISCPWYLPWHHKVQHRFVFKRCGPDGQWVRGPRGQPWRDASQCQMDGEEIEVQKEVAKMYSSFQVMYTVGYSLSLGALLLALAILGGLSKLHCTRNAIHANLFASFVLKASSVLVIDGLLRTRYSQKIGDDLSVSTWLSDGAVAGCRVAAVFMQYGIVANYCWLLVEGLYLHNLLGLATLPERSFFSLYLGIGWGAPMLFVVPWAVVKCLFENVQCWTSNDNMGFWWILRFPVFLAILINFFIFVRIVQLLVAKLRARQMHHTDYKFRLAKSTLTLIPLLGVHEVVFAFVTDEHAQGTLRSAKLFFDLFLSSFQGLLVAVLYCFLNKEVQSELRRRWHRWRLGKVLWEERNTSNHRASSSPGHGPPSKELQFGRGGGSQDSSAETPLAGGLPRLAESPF

Row | Compound | cAMP activation of mouse GLP-1R [1] | cAMP activation of mouse GCGR [2] | cAMP potency at human GIPR compared with human GIP(1–42) [3] | cAMP activation of human GLP-1R [4] | fold lower cAMP potency than hGIP at mouse GIPR [5] | cAMP activation of human GCGR [6] | half-life [7] | receptor internalisation compared to vehicle ([8]; 1-hour treatment, n = 3–4) | receptor internalisation (surface expression) compared to vehicle ([8]; 4-hours treatment, n = 7–8)
1 | CC[C@H](C)[C@H](NC(=O)[C@H](CO)NC(=O)[C@H](Cc1ccc(O)cc1)NC(=O)[C@H](CC(=O)O)NC(=O)[C@H](CO)NC(=O)[C@@H](NC(=O)[C@H](Cc1ccccc1)NC(=O)[C@@H](NC(=O)CNC(=O)[C@H](CCC(=O)O)NC(=O)C(C)(C)NC(=O)[C@@H](N)Cc1ccc(O)cc1)[C@@H](C)O)[C@@H](C)CC)C(=O)N[C@@H](C)C(=O)N[C@@H](CC(C)C)C(=O)N[C@@H](CC(=O)O)C(=O)N[C@@H](CCCCN)C(=O)N[C@H](C(=O)N[C@@H](Cc1c[nH]cn1)C(=O)N[C@@H](CCC(N)=O)C(=O)N[C@@H](CCC(N)=O)C(=O)N[C@@H](CC(=O)O)C(=O)N[C@@H](Cc1ccccc1)C(=O)N[C@H](C(=O)N[C@@H](CC(N)=O)C(=O)N[C@@H](Cc1c[nH]c2ccccc12)C(=O)N[C@@H](CC(C)C)C(=O)N[C@@H](CC(C)C)C(=O)N[C@@H](C)C(=O)N[C@@H](CCC(N)=O)C(=O)N[C@@H](CCCCN)C(=O)NCC(=O)N[C@@H](CCCCNC(=O)CC[C@H](NC(=O)CCCCCCCCCCCCCCCCCCC(=O)O)C(=O)O)C(=O)N[C@@H](CCCCN)C(=O)N[C@@H](CC(N)=O)C(=O)N[C@@H](CC(=O)O)C(=O)N[C@@H](Cc1c[nH]c2ccccc12)C(=O)N[C@@H](CCCCN)C(=O)N[C@@H](Cc1c[nH]cn1)C(=O)N[C@@H](CC(N)=O)C(=O)N[C@H](C(=O)N[C@H](C(=O)N[C@@H](CCC(N)=O)C(=O)O)[C@@H](C)O)[C@@H](C)CC)C(C)C)[C@@H](C)CC [GIP108] | minimal activation | minimal activation | potency similar to human GIP(1–42) | minimal activation | 19.6 fold | minimal activation | extended half-life |  | 
2 | GLP-1(7–36)·NH2 |  |  |  |  |  |  |  | significantly increased both mouse and human GLP-1R internalisation | significantly increased both mouse and human GLP-1R internalisation
